Consider ten molecules from patent US20250145665A1, “MACROCYCLIC PEPTIDES USEFUL AS MODULATORS OF TNF ALPHA” (Bristol-Myers Squibb Company, priority 2023, published 2025).

For orientation: IC50 means the concentration at which inhibition is half-maximal.

Starred links: 1 amine or outer side, 2 acyl side, 3 side chain; linkers in the order of their positions; H or OH if unused. Positions of bridges follow the written chain, without caps; N, C: chain ends. Non-standard residues stand in square brackets, D forms with d. Residues, ends and D or L forms follow the SMILES beside them. ξ: configuration not given here. *: point of attachment. Bip(4'-NHCO-C6H4-3-CH2COOH) = N[C@@H](Cc1ccc(-c2ccc(NC(=O)c3cccc(CC(=O)O)c3)cc2)cc1)C(=O)O; X21 = N=C(NCCC[C@@H](N[*:1])C(=O)[*:2])NC[C@H](O)[C@@H](O)[C@@H](O)CO; dArg(ω-(2S)-2,3-diOHpropyl) = N=C(NCCC[C@@H](N)C(=O)O)NC[C@H](O)CO; Bip(4'-NH) = O=C([C@H](Cc1ccc(-c2ccc(N[*:3])cc2)cc1)N[*:1])[*:2]; Indazole3carbonyl(1-CH2COOH) = O=C(O)Cn1nc(C(=O)*)c2ccccc21; Bip(4'-COOH) = N[C@@H](Cc1ccc(-c2ccc(C(=O)O)cc2)cc1)C(=O)O; Bip(4'-NHAc) = CC(=O)Nc1ccc(-c2ccc(C[C@H](N)C(=O)O)cc2)cc1; X18 = N=C(NCCC[C@@H](N[*:1])C(=O)[*:2])NCCc1ccc(O)cc1; X51 = N=C(NCCC[C@@H](N[*:1])C(=O)[*:2])NCCc1ccccc1; Ala(imidazol-2-yl) = N[C@@H](Cc1ncc[nH]1)C(=O)O; Ala(morpholin-4-yl) = N[C@@H](CN1CCOCC1)C(=O)O; Benzoyl(3-OCH2COOH) = O=C(O)COc1cccc(C(=O)*)c1; Phe(3-CONH2) = NC(=O)c1cccc(C[C@H](N)C(=O)O)c1; Bip = N[C@@H](Cc1ccc(-c2ccccc2)cc1)C(=O)O; Ala(2-furyl) = N[C@@H](Cc1ccco1)C(=O)O; 2Pal = N[C@@H](Cc1ccccn1)C(=O)O; 2Thi = N[C@@H](Cc1cccs1)C(=O)O; Cha = N[C@@H](CC1CCCCC1)C(=O)O; Chg = N[C@H](C(=O)O)C1CCCCC1; ξP = O=C(O)C1CCCN1; Sar = CNCC(=O)O

In one assay the target is TNFα (Homo sapiens, UniProt P01375). Description: TNF-Induced HEK-Blue Assay. Format: cell-based.
Sequence of TNFα (P01375 77-233 limits assumed): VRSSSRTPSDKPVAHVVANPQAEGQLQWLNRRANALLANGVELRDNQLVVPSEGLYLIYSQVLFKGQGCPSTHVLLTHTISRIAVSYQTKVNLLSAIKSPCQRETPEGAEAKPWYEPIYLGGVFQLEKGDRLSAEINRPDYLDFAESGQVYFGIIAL
Conditions: not given
`CC(C)C[C@@H]1NC(=O)[C@H](CCCNC(=N)N)NC(=O)[C@H](C(C)C)NC(=O)C2CCCN2C(=O)[C@H](C(C)C)NC(=O)[C@@H](CCCNC(=N)NCCc2ccc(O)cc2)NC(=O)[C@H](CC(=O)O)NC(=O)[C@@H]2CCCN2C(=O)CN(C)C(=O)[C@H](Cc2ccc(-c3ccc(NC(=O)c4nn(CC(=O)O)c5ccccc45)cc3)cc2)NC(=O)[C@H](Cc2ccc(-c3ccc(C(=O)O)cc3)cc2)NC(=O)[C@H](CN2CCOCC2)NC(=O)CSC[C@@H](C(=O)NCC(N)=O)NC1=O` (stereo partly shown) [Example 404] ({CH2CO}-[Ala(morpholin-4-yl)][Bip(4'-COOH)][Bip(4'-NH)](Indazole3carbonyl(1-CH2COOH))[Sar]PD[X18]V[ξP]VRLCG-NH2; thioether N-13) had an IC50 of 50 to 200 nM. Consider `CC(C)C[C@@H]1NC(=O)[C@H](CCCNC(=N)N)NC(=O)[C@H](C(C)C)NC(=O)[C@@H]2CCCN2C(=O)[C@H](C(C)C)NC(=O)[C@@H](CCCNC(=N)NCCc2ccccc2)NC(=O)[C@H](CC(=O)O)NC(=O)[C@@H]2CCCN2C(=O)CN(C)C(=O)[C@H](Cc2ccc(-c3ccc(NC(=O)c4nn(CC(=O)O)c5ccccc45)cc3)cc2)NC(=O)[C@H](Cc2ccc(-c3ccccc3)cc2)NC(=O)[C@H](CN2CCOCC2)NC(=O)CSC[C@@H](C(=O)NCC(N)=O)NC1=O` [Example 365] ({CH2CO}-[Ala(morpholin-4-yl)][Bip][Bip(4'-NH)](Indazole3carbonyl(1-CH2COOH))[Sar]PD[X51]VPVRLCG-NH2; thioether N-13), for which the IC50 is < 50 nM.

Still in this assay, the particulars now being: HEK-Blue-CD40L cells, NF-kB-driven secreted alkaline phosphatase reporter; TNFα 0.5 ng/ml; 18 h; read-out: TNF induced HEK-Blue assay IC50 value.
Regarding `CC(C)C[C@@H]1NC(=O)[C@H](CCCNC(=N)N)NC(=O)[C@H](C(C)C)NC(=O)[C@@H]2CCCN2C(=O)[C@H](C(C)C)NC(=O)[C@@H](CCCNC(=N)NC[C@H](O)[C@@H](O)[C@@H](O)CO)NC(=O)[C@H](CC(=O)O)NC(=O)[C@@H]2CCCN2C(=O)CN(C)C(=O)[C@H](Cc2ccc(-c3ccc(NC(=O)c4cccc(CC(=O)O)c4)cc3)cc2)NC(=O)[C@H](Cc2ccc(-c3ccccc3)cc2)NC(=O)[C@H](CN2CCOCC2)NC(=O)CSC[C@@H](C(=O)NCC(N)=O)NC1=O` [Example 627] ({CH2CO}-[Ala(morpholin-4-yl)][Bip][Bip(4'-NHCO-C6H4-3-CH2COOH)][Sar]PD[X21]VPVRLCG-NH2; thioether N-13), the IC50 fell in the range of 50 to 200 nM. Still for that read-out and setting: for `CC(=O)Nc1ccc(-c2ccc(C[C@@H]3NC(=O)[C@H](Cc4ccc(-c5ccccc5)cc4)NC(=O)[C@H](CN4CCOCC4)NC(=O)CSC[C@@H](C(=O)NCC(N)=O)NC(=O)[C@H](CC(C)C)NC(=O)[C@H](Cc4cccc(C(N)=O)c4)NC(=O)[C@H](C(C)C)NC(=O)[C@@H]4CCCN4C(=O)[C@H](C(C)C)NC(=O)[C@@H](CCCNC(=N)N)NC(=O)[C@H](CC(=O)O)NC(=O)[C@H](Cc4ccccc4)NC(=O)CN(C)C3=O)cc2)cc1` [Example 455] ({CH2CO}-[Ala(morpholin-4-yl)][Bip][Bip(4'-NHAc)][Sar]FD[dR]VPV[Phe(3-CONH2)]LCG-NH2; thioether N-13) the value was 50 to 200 nM; for `CC(=O)Nc1ccc(-c2ccc(C[C@@H]3NC(=O)[C@H](Cc4ccc(-c5ccccc5)cc4)NC(=O)[C@H](CC4CCCCC4)NC(=O)CSC[C@@H](C(=O)NCC(N)=O)NC(=O)[C@H](CC(C)C)NC(=O)[C@H](Cc4ncc[nH]4)NC(=O)[C@H](C(C)C)NC(=O)[C@@H]4CCCN4C(=O)[C@H](C(C)C)NC(=O)[C@@H](CCCNC(=N)N)NC(=O)[C@H](CC(=O)O)NC(=O)[C@H](Cc4ccco4)NC(=O)CN(C)C3=O)cc2)cc1` [Example 451] ({CH2CO}-[Cha][Bip][Bip(4'-NHAc)][Sar][Ala(2-furyl)]D[dR]VPV[Ala(imidazol-2-yl)]LCG-NH2; thioether N-13), < 50 nM.

On to `CC(C)C[C@@H]1NC(=O)[C@H](Cc2ccc(O)cc2)NC(=O)[C@H](C(C)C)NC(=O)[C@@H]2CCCN2C(=O)[C@H](C(C)C)NC(=O)[C@H](CCCNC(=N)N)NC(=O)[C@H](CC(=O)O)NC(=O)[C@H](Cc2ccc(O)cc2)NC(=O)CN(C)C(=O)[C@H](Cc2ccc(-c3ccccc3)cc2)NC(=O)[C@H](Cc2ccc(-c3ccc(C(=O)O)cc3)cc2)NC(=O)[C@H](CN2CCOCC2)NC(=O)CSC[C@@H](C(=O)NCC(N)=O)NC1=O` [Example 121] ({CH2CO}-[Ala(morpholin-4-yl)][Bip(4'-COOH)][Bip][Sar]YDRVPVYLCG-NH2; thioether N-13), for which the IC50 was 200 to 2000 nM. On the same count and under the same terms, for `CC(C)C[C@@H]1NC(=O)[C@H](CCCNC(=N)N)NC(=O)[C@H](C(C)C)NC(=O)CN(C)C(=O)[C@H](C(C)C)NC(=O)[C@@H](CCCNC(=N)N)NC(=O)[C@H](CC(=O)O)NC(=O)[C@H](Cc2ccc(O)cc2)NC(=O)CN(C)C(=O)[C@H](Cc2ccc(-c3ccccc3)cc2)NC(=O)[C@H](Cc2ccc(-c3ccccc3)cc2)NC(=O)[C@H](CN2CCOCC2)NC(=O)CSC[C@@H](C(=O)NCC(N)=O)NC1=O` [Example 135] ({CH2CO}-[Ala(morpholin-4-yl)][Bip][Bip][Sar]YD[dR]V[Sar]VRLCG-NH2; thioether N-13) the value was 200 to 2000 nM. Still for that read-out and setting: the value for `CC(=O)Nc1ccc(-c2ccc(C[C@@H]3NC(=O)[C@H](Cc4ccc(-c5ccccc5)cc4)NC(=O)[C@H](CN4CCOCC4)NC(=O)CSC[C@@H](C(=O)NCC(N)=O)NC(=O)[C@H](CC(C)C)NC(=O)[C@H](Cc4cccs4)NC(=O)[C@H](C4CCCCC4)NC(=O)[C@@H]4CCCN4C(=O)[C@H](C(C)C)NC(=O)[C@@H](CCCNC(=N)N)NC(=O)[C@H](CC(=O)O)NC(=O)[C@H](Cc4ccccn4)NC(=O)CN(C)C3=O)cc2)cc1` [Example 452] ({CH2CO}-[Ala(morpholin-4-yl)][Bip][Bip(4'-NHAc)][Sar][2Pal]D[dR]VP[Chg][2Thi]LCG-NH2; thioether N-13) was 50 to 200 nM. Still for that read-out and setting: the value for `CC(C)C[C@@H]1NC(=O)[C@H](Cc2ccccc2)NC(=O)[C@H](C(C)C)NC(=O)[C@@H]2CCCN2C(=O)[C@H](C(C)C)NC(=O)[C@@H](CCCNC(=N)N)NC(=O)[C@H](CC(=O)O)NC(=O)[C@H](Cc2cnc[nH]2)NC(=O)CN(C)C(=O)[C@H](Cc2ccc(-c3ccccc3)cc2)NC(=O)[C@H](Cc2ccc(-c3ccccc3)cc2)NC(=O)[C@H](CN2CCOCC2)NC(=O)CSC[C@@H](C(=O)NCC(N)=O)NC1=O` [Example 231] ({CH2CO}-[Ala(morpholin-4-yl)][Bip][Bip][Sar]HD[dR]VPVFLCG-NH2; thioether N-13) was 50 to 200 nM; that for `CC(C)C[C@@H]1NC(=O)[C@H](Cc2cccc(C(N)=O)c2)NC(=O)[C@H](C(C)C)NC(=O)[C@@H]2CCCN2C(=O)[C@H](C(C)C)NC(=O)[C@@H](CCCNC(=N)NC[C@H](O)CO)NC(=O)[C@H](CC(=O)O)NC(=O)[C@H](Cc2ccc(O)cc2)NC(=O)CN(C)C(=O)[C@H](Cc2ccc(-c3ccc(NC(=O)c4cccc(OCC(=O)O)c4)cc3)cc2)NC(=O)[C@H](Cc2ccc(-c3ccccc3)cc2)NC(=O)[C@H](CN2CCOCC2)NC(=O)CSC[C@@H](C(=O)NCC(N)=O)NC1=O` [Example 550] ({CH2CO}-[Ala(morpholin-4-yl)][Bip][Bip(4'-NH)](Benzoyl(3-OCH2COOH))[Sar]YD[dArg(ω-(2S)-2,3-diOHpropyl)]VPV[Phe(3-CONH2)]LCG-NH2; thioether N-13) was 50 to 200 nM.
